Results on 3 compounds are retold here after patent publication US20150045409A1, “AMIDE COMPOUND AND USE THEREOF FOR PEST CONTROL” (SUMITOMO CHEMICAL COMPANY, LIMITED, priority 2012, published 2015).

The structures appear in SMILES notation. Bounds are passed on as bounds.

Common to all, as to type: in vivo
For assay [1], the system named is adult common house mosquitos. The experiment in a line: Spray knockdown test on adult common house mosquitos (Test Examples 5, 6). Particulars: active ingredient 0.02% w/v oil solution, 0.5 ml sprayed, counted after 15 minutes. How it is done: The formulations of Compounds (2), (7), (48) and (49) of the present invention obtained in Formulation Example 7 were diluted with a mixture solution with a ratio of isopropyl alcohol/deodorized kerosene of 1/9, so as to have a concentration of active ingredient of 0.1% w/v, to prepare a test drug solution.
(§1) Ten adult common house mosquitos were released in a polyethylene cup (a bottom diameter of 10.6 cm) which was then capped with 16-mesh nylon gauze. The polyethylene cup was placed on the bottom of a test chamber (bottom: 46 cm×46 cm, height: 70 cm). From a height of 30 cm above the upper surface of the polyethylene cup, 0.5 ml of the test drug solution was sprayed using a spray gun (a spraying pressure of 0.4 kg/cm^2). Immediately after spraying, the cup was taken out from the test container, and after 15 minutes, the number of knockdown insects was counted to obtain a knockdown rate. The knockdown rate was calculated by the following equation.
(§2) Knockdown Rate(%)=(Number of Knockdown Insects/Number of Tested Insects)×100
Each of the formulations of Compounds (19) and (40) to (42) of the present invention obtained in Formulation Example 7 was diluted with a mixture solution with a ratio of isopropyl alcohol/deodorized kerosene of 1/9, so as to have a concentration of active ingredient of 0.02% w/v, to prepare a test drug solution. […]

The next assay has as its system adult houseflies. The experiment in a line: Spray knockdown test on adult houseflies (Test Examples 3, 4). Particulars: Musca domestica, 10 min; active ingredient 0.5% w/v oil solution, 0.5 ml sprayed, counted after 10 minutes; read-out: knockdown rate. How it is done: The formulations of Compounds (7), (46) and (48) of the present invention obtained in Formulation Example 7 were diluted with a mixture solution with a ratio of isopropyl alcohol/deodorized kerosene of 1/9, so as to have a concentration of active ingredient of 2.0% w/v, to prepare a test drug solution.
as §1, with “houseflies (5 males and 5 females)” for “common house mosquitos”, “0.9” for “0.4”, “10” for “15”
as §2
The formulations of Compounds (4), (6), (8), (17) to (19), (28), (29), (33), (40) to (42) and (51) to (53) of the present invention obtained in Formulation Example 7 were diluted with a mixture solution with a ratio of isopropyl alcohol/deodorized kerosene of 1/9, so as to have a concentration of active ingredient of 0.5% w/v, to prepare a test drug solution. The test was performed in the same manner as in Test Example 3.

Assay [2] relates to adult houseflies (Musca domestica). The experiment in a line: Filter paper/sucrose bait mortality test on adult houseflies (Test Example 8). Particulars: 0.7 ml on filter paper with sucrose bait, after 24 hours. How it is done: Each of the formulations of Compounds (2) to (6), (8), (12), (15) to (18), (27), (29), (33), (37) to (39), (41), (42) and (45) of the present invention obtained in Formulation Example 15 was diluted with water, so as to have a concentration of active ingredient of 500 ppm, to prepare a test drug solution.
On the bottom of a polyethylene cup with a diameter of 5.5 cm, a filter paper of the same size was laid down, and 0.7 ml of the test drug solution was dropped onto the filter paper, then 30 mg of sucrose was uniformly put as bait. Ten adult houseflies (Musca domestica) were released in the polyethylene cup which was then capped.

For assay [3] the test system is unchanged. The experiment in a line: Filter paper/sucrose bait knockdown test on adult houseflies (Test Example 7). Conditions: 0.7 ml on filter paper with sucrose bait, after 2 hours, read-out: knockdown rate. The procedure:
Each of the formulations of Compounds (2), (4) to (6), (8), (9), (18), (21) to (23), (27), (29), (32) to (36), (38), (41), (42) and (53) of the present invention obtained in Formulation Example 15 was diluted with water, so as to have a concentration of active ingredient of 500 ppm, to prepare a test drug solution.
On the bottom of a polyethylene cup with a diameter of 5.5 cm, a filter paper of the same size was laid down, and 0.7 ml of the test drug solution was dropped onto the filter paper, then 30 mg of sucrose was uniformly put as bait. Ten adult houseflies (Musca domestica) were released in the polyethylene cup which was then capped. After 2 hours, the number of knockdown insects was counted to obtain a knockdown rate. The knockdown rate was calculated by the following equation.
as §2

Assay [4] relates to last instar larvae of common house mosquitoes (Culex pipiens pallens). The experiment in a line: Larvicidal test on common house mosquito larvae in water (Test Examples 9, 10). Conditions: 192 h, active ingredient 3.5 ppm in water, after 8 days. The procedure:
Each of the formulations of Compounds (26) and (45) of the present invention obtained in Formulation Example 15 was diluted with water, so as to have a concentration of active ingredient of 500 ppm, to prepare a test drug solution.
0.7 ml of the test drug solution was added to 100 ml of ion-exchanged water (a concentration of active ingredient of 3.5 ppm).
Each of the formulations of Compounds (5), (6), (24), (27), (29), (30), (33), (38) and (47) of the present invention obtained in Formulation Example 15 was diluted with water, so as to have a concentration of active ingredient of 500 ppm, to prepare a test drug solution.

For assay [5], the system named is third-instar larvae of diamondback moth (Plutella xylostella). The experiment in a line: Cabbage foliar spray test on diamondback moth larvae (Test Example 11). Conditions: 500 ppm spray, 20 ml/cup on cabbage, after 5 days. How it is done:
On the other hand, a cabbage was planted in a polyethylene cup and grown until the third true leaf or the fourth true leaf was developed. The test spray solution was sprayed in a ratio of 20 ml/cup on the cabbage. After the drug solution sprayed on the cabbage was dried, 10 third-instar larvae of diamondback moth (Plutella xylostella) were put on the cabbage. After 5 days, the number of diamondback moths was counted, and a controlling value was calculated by the following equation. […] Letters in the formula have the following meanings. Cb: the number of insects in an untreated section before treatment Cai: the number of insects in an untreated section on observation Tb: the number of insects in a treated section before treatment Tai: the number of insects in a treated section on observation

`CCCC[C@@H]1C[C@H]1/C=C/C(=O)NCC1CCOC1` (relative stereo) [Compound (19), (E)-N-(tetrahydrofuran-3-ylmethyl)-3-(trans-2′-butylcyclopropyl)-2-propenamide]: in assay [1], the knockdown rate is at least 90%.
Take `CCCCCC/C(C)=C(\F)C(=O)NCC1CCOCC1` [Compound (29), (Z)—N-(tetrahydropyran-4-ylmethyl)-2-fluoro-3-methyl-2-nonenamide]: in the assay with adult houseflies, the pest or weed control at 0.5 % was at least 80%. In assay [2], this compound registered a mortality at 500 ppm of at least 90%. Also, the pest or weed control at 500 ppm in assay [3] was 100%. Besides, the mortality at 3.5 ppm in assay [4] was at least 95%.
The compound `CCCCC1C(/C=C/C(=O)NCC2CCOCC2)C1(C)C` (stereo not drawn) [Compound (43), (E)-N-(tetrahydropyran-4-ylmethyl)-3-(trans-2′-butyl-3′,3′-dimethylcyclopropyl)-2-propenamide] had a controlling value in assay [5] of 100%.

Broadly, the mortality is the share of the test organisms that died.
